The nature of data set [1]: PAMPA permeability, liver polar lipid extract (LPLE) membrane. Particulars: for Papp at 4 h, 100 μM: bovine, PAMPA.
Data set [2] is described as follows: PAMPA permeability, brain polar lipid extract (BPLE) membrane. Particulars: for Mean logPe / Mean Pe: Brain Polar lipid extract membrane, n=3; for Mean Pe: * = not detected at acceptor side, value calculated from limit of detection; for Papp at 4 h, 100 μM: pig, PAMPA, pH 7.4.
The nature of data set [3]: PAMPA permeability, brain total lipid extract (BTLE) membrane. Particulars: for Mean logPe / Mean Pe: Brain total lipid extract membrane, n=3; for Papp at 4 h, 100 μM: pig, PAMPA, pH 7.4; for Mean Pe: * = not detected at acceptor side, value calculated from limit of detection.
Data set [4] in a line: PAMPA permeability, heart polar lipid extract (HPLE) membrane. Particulars: for Mean logPe / Mean Pe: Heart Polar lipid extract membrane, n=3; for Papp at 4 h, 100 μM: bovine, PAMPA, pH 7.4; for Mean Pe: * = not detected at acceptor side, value calculated from limit of detection.
The nature of data set [5]: PAMPA permeability, heart total lipid extract (HTLE) membrane. Conditions: for Mean logPe / Papp at 4 h, 100 μM / Mean Pe: Heart total lipid extract membrane, n=3; for Papp at 4 h, 100 μM: bovine, PAMPA; for PAMPA permeability on HTLE: pH 7.4, 4 h, 37 °C, in words (PCA biplot, Figure 11B). Background: In PAMPA a lipid-coated filter parts donor from acceptor wells.
The nature of data set [6]: PAMPA permeability, liver total lipid extract (LTLE) membrane. Conditions: for Mean logPe / Mean Pe: Liver total lipid extract membrane, n=3; for Papp at 4 h, 100 μM: bovine, PAMPA, pH 7.4; for Mean Pe: * = not detected at acceptor side, value calculated from limit of detection.
Where [7] appears, read: pH 7.4, Mean Pe, n=3, * = not detected at acceptor side, value calculated from limit of detection.
The mark [8] stands for this setting: pH 7.4, Mean Pe, * = not detected at acceptor side, value calculated from limit of detection.
The mark [9] stands for this setting: * = not detected at acceptor side, value calculated from limit of detection.

Broadly, the Papp is a coefficient for how fast a substance crosses the barrier.

`CC1=NNS(=O)(=O)c2c1ccc(Cl)c2Cl` [PGY0072]: the Papp at 4 h, 100 μM in data set [1] (setting [7]) was 122 nm/s; in data set [3] it was 32.3 nm/s; in data set [4], 46.7 nm/s; in data set [5] (setting [8]) it was 42.6 nm/s; in data set [6] it was 222 nm/s. Further, the “Mean logPe” value is -4.91 in data set [1] (n=3); -5.38 in data set [2]; -5.50 in data set [3]; -5.35 in data set [4]; -5.40 in data set [5]; -4.66 in data set [6]. Moreover, the “Mean Pe” value in data set [2] is given as 4.23 10-6 cm/s. For the same molecule, in data set [5], the “PAMPA permeability on HTLE” value was “low”.

On to `Nc1c(Br)cc(Br)cc1CN[C@H]1CC[C@H](O)CC1` [ambroxol], for which the apparent permeability coefficient (Papp) at 4 h, 100 μM in data set [1] (setting [7]) was 544 nm/s; in data set [4], 618 nm/s; in data set [6], 540 nm/s. The “Mean logPe” value was -4.26 in data set [1] (n=3), -4.21 in data set [4], -4.40 in data set [5] and -4.27 in data set [6].

`Cn1c(=O)c2c(ncn2C)n(C)c1=O` [caffeine]: the Papp at 4 h, 100 μM was 113 nm/s in data set [1] (setting [7]); 29.7 nm/s in data set [2]; 19.6 nm/s in data set [3]; 41.9 nm/s in data set [4]; 26.2 nm/s in data set [5] (setting [8]); 203 nm/s in data set [6]. Moreover, the “Mean logPe” value was -4.95 in data set [1] (n=3); -5.53 in data set [2]; -5.71 in data set [3]; -5.39 in data set [4]; -5.59 in data set [5]; -4.7 in data set [6]. For the same molecule, the “PAMPA permeability on HTLE” value in data set [5] was “low”.

Turning to `CO/N=C(\C(=O)N[C@@H]1C(=O)N2C(C(=O)O)=C(COC(N)=O)CS[C@H]12)c1ccco1` [cefuroxime], the apparent permeability coefficient (Papp) at 4 h, 100 μM is 71 nm/s in data set [1] (setting [7]), 11.4 nm/s in data set [2], 12.8 nm/s in data set [3] and 12.5 nm/s in data set [5] (setting [8]). Besides, the “Mean logPe” value in data set [1] (n=3) was -5.17; in data set [2] it was -5.94; in data set [3], -5.89; in data set [4] it was below -5.89; in data set [5] it was -5.91; in data set [6] it was below -5.94. Moreover, the “Mean Pe” value in data set [4] is on record as < 1,28* 10-6 cm/s; in data set [6], < 1,14* 10-6 cm/s.

As to `CCn1cc(C(=O)O)c(=O)c2cc(F)c(N3CCNCC3)nc21` [enoxacin], the Papp at 4 h, 100 μM in data set [1] (setting [7]) is 34.9 nm/s; in data set [2], 75.8 nm/s; in data set [3] it was 44.8 nm/s; in data set [4], 37 nm/s; in data set [5] (setting [8]), 4 nm/s; in data set [5] (pH 7.4, Mean logPe), 5.89 nm/s. Moreover, in data set [6], the Papp at 4 h, 100 μM is 42.5 nm/s. Moreover, the “Mean logPe” value in data set [1] (n=3) is listed as -5.46; in data set [2], -5.12; in data set [3], -5.36; in data set [4], -5.44; in data set [6] it was -5.37.

Consider `NC(N)=Nc1nc(CSCCC(N)=NS(N)(=O)=O)cs1` [famotidine], for which the “Mean logPe” value in data set [1] (n=3) is listed as below -6.49; in data set [2], below -6.48; in data set [3], below -6.47. Also, the “Mean Pe” value in data set [1] (n=3, * = not detected at acceptor side, value calculated from limit of detection) is given as < 0,33* 10-6 cm/s; in data set [2] it was < 0,33* 10-6 cm/s; in data set [3], < 0,34* 10-6 cm/s; in data set [4] it was < 0,34* 10-6 cm/s; in data set [5] (setting [9]) it was < 0,33* 10-6 cm/s; in data set [6], < 0,33* 10-6 cm/s. Further, the Papp at 4 h, 100 μM was below 3.39 nm/s in data set [4]; below 3.24 nm/s in data set [5] (pH 7.4, Mean logPe); below 3.31 nm/s in data set [6].

Regarding `CC1Cc2ccccc2N1NC(=O)c1ccc(Cl)c(S(N)(=O)=O)c1` (stereo not shown) [indapamide], the Papp at 4 h, 100 μM in data set [1] (setting [7]) was 169 nm/s; in data set [2], 66 nm/s; in data set [3], 52.2 nm/s; in data set [4] it was 53.7 nm/s; in data set [5] (setting [8]), 20.4 nm/s; in data set [6] it was 245 nm/s. For the same molecule, the “Mean logPe” value is reported as -4.77 in data set [1] (n=3); -5.19 in data set [2]; -5.29 in data set [3]; -5.28 in data set [4]; -5.69 in data set [5]; -4.61 in data set [6].

Consider `CC(CCc1ccccc1)NCC(O)c1ccc(O)c(C(N)=O)c1` (stereo not shown) [labetalol], for which the apparent permeability (Papp) at 4 h, 100 μM is 190 nm/s in data set [1] (setting [7]); 222 nm/s in data set [2]; 150 nm/s in data set [3]; 83.8 nm/s in data set [4]; 53.7 nm/s in data set [5] (setting [8]); 380 nm/s in data set [6]. For the same molecule, the “Mean logPe” value in data set [1] (n=3) is recorded as -4.72; in data set [2] it was -4.65; in data set [3], -4.83; in data set [4], -5.08; in data set [5], -5.27; in data set [6], -4.42.

Take `COCCc1ccc(OCC(O)CNC(C)C)cc1` (stereo not shown) [metoprolol]: the Papp at 4 h, 100 μM in data set [1] (setting [7]) was 132 nm/s; in data set [1] (pH 7.4, Mean logPe, n=3) it was 195 nm/s; in data set [6], 401 nm/s. Besides, the figures for the “Mean logPe” value in data set [4], in data set [5] and in data set [6] were -4.96, -5.04 and -4.4, respectively.

As to `NC(=O)Cc1cccc(C(=O)c2ccccc2)c1N` [nepafenac], the apparent permeability (Papp) at 4 h, 100 μM in data set [1] (setting [7]) was 386 nm/s; in data set [2] it was 213 nm/s; in data set [3], 244 nm/s; in data set [4], 259 nm/s; in data set [5] (setting [8]), 188 nm/s; in data set [6], 729 nm/s. Further, the “Mean logPe” value is listed as -4.44 in data set [1] (n=3); -4.67 in data set [2]; -4.61 in data set [3]; -4.59 in data set [4]; -4.73 in data set [5]; -4.14 in data set [6].

`CCn1cc(C(=O)O)c(=O)c2cc(F)c(N3CCNCC3)cc21` [norfloxacin]: the apparent permeability (Papp) at 4 h, 100 μM in data set [1] (setting [7]) was 71.7 nm/s; in data set [1] (pH 7.4, Mean logPe, n=3), 52.5 nm/s; in data set [3] it was below 4.9 nm/s; in data set [4], 15.9 nm/s; in data set [5] (pH 7.4, Mean logPe), below 5.37 nm/s; in data set [6], below 5.01 nm/s. Moreover, the “Mean logPe” value in data set [2] is on record as below -6.30; in data set [4], -5.80. Besides, the “Mean Pe” value in data set [2] is given as < 0,50* 10-6 cm/s; in data set [3], < 0,49* 10-6 cm/s; in data set [5] (setting [9]), < 0,54* 10-6 cm/s; in data set [6], < 0,5* 10-6 cm/s.

As for `CN1C(C(=O)Nc2ccccn2)=C(O)c2ccccc2S1(=O)=O` [piroxicam], the apparent permeability (Papp) at 4 h, 100 μM was 103 nm/s in data set [1] (setting [7]); 23.5 nm/s in data set [2]; 35.7 nm/s in data set [3]; 19.2 nm/s in data set [5] (setting [8]); 28.8 nm/s in data set [5] (pH 7.4, Mean logPe); 163 nm/s in data set [6]. For the same molecule, the “Mean logPe” value is on record as -4.99 in data set [1] (n=3), -5.64 in data set [2], -5.45 in data set [3] and -4.79 in data set [6]. Also, the “PAMPA permeability on HTLE” value in data set [5] was “low”.

As for `CCOC(=O)[C@H](CCc1ccccc1)N[C@@H](C)C(=O)N1[C@H](C(=O)O)C[C@@H]2CCC[C@@H]21` [ramipril], the Papp at 4 h, 100 μM in data set [1] (setting [7]) was 22.3 nm/s. The “Mean Pe” value in data set [2] is on record as < 0,86* 10-6 cm/s; in data set [3], < 0,86* 10-6 cm/s; in data set [4], < 0,98* 10-6 cm/s; in data set [5] (setting [9]) it was < 0,87* 10-6 cm/s.

Values taken from PMC10053807, “Natural Lipid Extracts as an Artificial Membrane for Drug Permeability Assay: In Vitro and In Silico Characterization” (Pharmaceutics, 2023).
